Experimental data from ChEMBL document CHEMBL5634071, “Fluorine in anti-HIV drugs approved by FDA from 1981 to 2023” (Eur J Med Chem, 2023).
Each block holds one compound with its values, some of them ahead of it.

Tests used:
[1] = system: Human immunodeficiency virus; experiment: Antiviral activity against HIV IIIB infected in human MT4 cells; assay type: functional, organism-based; conditions: Human immunodeficiency virus 1, IIIB
[2] = target: T1, Human immunodeficiency virus type 1 protease (Human immunodeficiency virus 1, UniProt Q72874); experiment: Inhibition of HIV-1 protease expressed in Escherichia coli incubated for 90 mins by fluorescence based analysis
[3] = target: T2, DNA polymerase subunit gamma-1 (Homo sapiens, UniProt P54098); experiment: Binding affinity to human DNA polymerase gamma assessed as dissociation constant
T2 sequence (P54098 whole entry): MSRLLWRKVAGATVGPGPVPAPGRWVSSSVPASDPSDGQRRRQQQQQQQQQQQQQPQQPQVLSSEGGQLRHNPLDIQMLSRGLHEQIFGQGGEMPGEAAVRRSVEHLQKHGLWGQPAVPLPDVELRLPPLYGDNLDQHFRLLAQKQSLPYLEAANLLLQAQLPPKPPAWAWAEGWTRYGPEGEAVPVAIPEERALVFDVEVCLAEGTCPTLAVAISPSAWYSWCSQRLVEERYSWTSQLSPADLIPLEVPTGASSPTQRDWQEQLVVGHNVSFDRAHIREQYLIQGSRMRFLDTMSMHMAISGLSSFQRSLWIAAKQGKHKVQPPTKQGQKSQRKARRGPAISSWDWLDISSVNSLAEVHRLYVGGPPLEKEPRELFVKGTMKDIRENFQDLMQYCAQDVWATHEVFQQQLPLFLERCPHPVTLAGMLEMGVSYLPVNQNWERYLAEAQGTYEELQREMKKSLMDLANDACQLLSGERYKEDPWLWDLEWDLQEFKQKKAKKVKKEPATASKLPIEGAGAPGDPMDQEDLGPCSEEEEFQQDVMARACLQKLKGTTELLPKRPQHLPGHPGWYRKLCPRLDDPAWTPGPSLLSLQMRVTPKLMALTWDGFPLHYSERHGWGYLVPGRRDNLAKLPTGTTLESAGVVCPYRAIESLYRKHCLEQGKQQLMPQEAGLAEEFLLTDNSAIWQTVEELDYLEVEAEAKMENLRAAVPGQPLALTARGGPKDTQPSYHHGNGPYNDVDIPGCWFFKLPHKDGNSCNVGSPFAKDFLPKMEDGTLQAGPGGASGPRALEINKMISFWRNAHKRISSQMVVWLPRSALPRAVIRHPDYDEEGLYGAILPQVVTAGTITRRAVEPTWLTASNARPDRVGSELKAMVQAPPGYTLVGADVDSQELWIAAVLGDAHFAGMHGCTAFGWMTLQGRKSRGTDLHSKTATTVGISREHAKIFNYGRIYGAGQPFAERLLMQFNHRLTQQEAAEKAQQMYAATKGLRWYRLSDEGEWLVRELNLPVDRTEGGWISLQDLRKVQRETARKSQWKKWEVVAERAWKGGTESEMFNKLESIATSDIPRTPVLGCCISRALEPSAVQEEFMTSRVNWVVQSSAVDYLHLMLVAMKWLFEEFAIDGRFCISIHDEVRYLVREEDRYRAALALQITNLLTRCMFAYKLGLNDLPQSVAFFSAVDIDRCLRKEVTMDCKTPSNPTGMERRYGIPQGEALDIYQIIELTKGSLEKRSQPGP

[4] = target: T3, DNA polymerase subunit gamma-1 (Homo sapiens) (UniProt P54098); experiment: Binding affinity to human DNA polymerase gamma assessed as polymerization rate
T3 sequence (whole entry): T2 sequence (P54098 whole entry)

[5] = target: T3, DNA polymerase subunit gamma-1 (Homo sapiens); experiment: Ratio of K for biding affinity to human DNA polymerase gamma assessed as polymerization rate to Kd for binding affinity to human DNA polymerase gamma
[6] = system: Human immunodeficiency virus 1; experiment: Antiviral activity against HIV-1 infected in human MT4 cells assessed as reduction in virus induced cytopathic effect; assay type: functional, organism-based; conditions: Human immunodeficiency virus 1, MT4
[7] = Half-life in human administered as single dose; assay type: ADME
[8] = system: Human immunodeficiency virus 1; experiment: Antiviral activity against HIV-1 RF infected in human MT4 cells assessed as reduction in viral RNA production measured after 3 days by plaque assay; assay type: functional; conditions: Human immunodeficiency virus 1, RF, MT4, 72 h; time 3 day
[9] = system: Human immunodeficiency virus 1; experiment: Antiviral activity against HIV-1 NL4-3 infected in human MT4 cells assessed as reduction in virus induced cytopathic effect by XTT assay; assay type: functional, organism-based; conditions: Human immunodeficiency virus 1, NL4-3, MT4
hERG = hERG (Homo sapiens, UniProt Q12809); experiment: Inhibition of tritium labelled dofetilide binding to hERG expressed in HEK293 cells at 300 nM relative to control; assay type: toxicity, cell-based; conditions: HEK293 cells that express hERG, probe tritium labelled dofetilide
Chain of hERG (Q12809 whole entry): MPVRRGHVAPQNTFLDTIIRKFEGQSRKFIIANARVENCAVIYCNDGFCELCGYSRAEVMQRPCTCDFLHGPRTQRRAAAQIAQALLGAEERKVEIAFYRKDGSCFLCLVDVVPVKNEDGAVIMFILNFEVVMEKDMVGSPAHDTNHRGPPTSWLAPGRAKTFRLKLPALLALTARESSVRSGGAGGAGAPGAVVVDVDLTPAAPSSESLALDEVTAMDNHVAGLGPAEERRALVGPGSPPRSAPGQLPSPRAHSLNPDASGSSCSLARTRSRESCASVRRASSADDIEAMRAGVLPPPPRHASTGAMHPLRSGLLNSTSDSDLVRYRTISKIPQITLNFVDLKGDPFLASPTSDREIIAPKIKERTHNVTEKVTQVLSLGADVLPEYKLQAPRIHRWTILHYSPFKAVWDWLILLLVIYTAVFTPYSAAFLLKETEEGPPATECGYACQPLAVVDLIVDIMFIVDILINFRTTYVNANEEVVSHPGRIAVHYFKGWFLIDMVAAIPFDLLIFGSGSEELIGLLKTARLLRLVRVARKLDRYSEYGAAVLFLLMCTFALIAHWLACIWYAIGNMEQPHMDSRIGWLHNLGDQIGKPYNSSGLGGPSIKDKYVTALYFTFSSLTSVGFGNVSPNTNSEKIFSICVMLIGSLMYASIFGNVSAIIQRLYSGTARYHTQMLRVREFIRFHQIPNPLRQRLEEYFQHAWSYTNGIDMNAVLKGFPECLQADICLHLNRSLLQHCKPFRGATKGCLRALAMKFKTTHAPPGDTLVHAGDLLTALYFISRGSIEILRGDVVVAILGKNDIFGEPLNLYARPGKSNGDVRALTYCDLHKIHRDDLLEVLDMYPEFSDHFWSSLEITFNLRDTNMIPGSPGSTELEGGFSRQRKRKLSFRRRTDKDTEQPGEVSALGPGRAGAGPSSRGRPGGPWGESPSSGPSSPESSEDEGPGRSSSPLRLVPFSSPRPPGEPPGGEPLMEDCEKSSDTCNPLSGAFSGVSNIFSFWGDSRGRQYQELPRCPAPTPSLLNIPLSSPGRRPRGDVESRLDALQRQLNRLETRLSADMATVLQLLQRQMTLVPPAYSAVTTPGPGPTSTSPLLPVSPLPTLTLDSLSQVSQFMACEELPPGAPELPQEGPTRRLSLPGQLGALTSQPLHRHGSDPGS

[10] = system: Human immunodeficiency virus; experiment: Antiviral activity agaisnt HIV BAL infected in human PM1 cells assessed as inhibition of viral replication; assay type: functional, organism-based; conditions: Human immunodeficiency virus 1, BAL
Cytochrome P450 2D6 = Cytochrome P450 2D6 (Homo sapiens, UniProt P10635); experiment: Inhibition of CYP2D6 (unknown origin); assay type: ADME
Chain of Cytochrome P450 2D6 (P10635 whole entry): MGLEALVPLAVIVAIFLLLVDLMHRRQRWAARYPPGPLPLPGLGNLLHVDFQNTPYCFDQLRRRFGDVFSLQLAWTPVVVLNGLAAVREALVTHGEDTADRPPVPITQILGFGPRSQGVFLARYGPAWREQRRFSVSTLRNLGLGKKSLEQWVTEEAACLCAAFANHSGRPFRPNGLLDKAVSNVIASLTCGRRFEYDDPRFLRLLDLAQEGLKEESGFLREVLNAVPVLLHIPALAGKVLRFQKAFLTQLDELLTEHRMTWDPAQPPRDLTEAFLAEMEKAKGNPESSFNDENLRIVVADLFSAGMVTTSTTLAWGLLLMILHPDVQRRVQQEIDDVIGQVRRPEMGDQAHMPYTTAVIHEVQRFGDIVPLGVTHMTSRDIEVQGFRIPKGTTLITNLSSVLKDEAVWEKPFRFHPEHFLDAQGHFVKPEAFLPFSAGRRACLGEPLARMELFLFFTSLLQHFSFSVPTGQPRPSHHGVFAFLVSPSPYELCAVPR

[11] = target: C-C chemokine receptor type 5 (Homo sapiens, UniProt P51681); experiment: Displacement of [125I]MIP-1alpha from CCR5 receptor (unknown origin) expressed in HEK293 cells; assay type: cell-based
Chain of C-C chemokine receptor type 5 (P51681 whole entry): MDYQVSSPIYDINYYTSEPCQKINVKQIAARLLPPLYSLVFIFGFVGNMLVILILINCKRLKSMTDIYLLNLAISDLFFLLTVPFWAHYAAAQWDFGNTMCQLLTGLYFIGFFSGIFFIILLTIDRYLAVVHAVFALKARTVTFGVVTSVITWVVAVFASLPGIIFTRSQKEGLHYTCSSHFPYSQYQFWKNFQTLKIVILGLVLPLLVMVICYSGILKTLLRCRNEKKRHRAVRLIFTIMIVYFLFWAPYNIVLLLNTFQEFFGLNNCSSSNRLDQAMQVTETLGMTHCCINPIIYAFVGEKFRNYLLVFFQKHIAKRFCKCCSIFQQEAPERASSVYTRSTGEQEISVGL

[12] = target: T1, Human immunodeficiency virus type 1 protease; experiment: Inhibition of HIV-1 protease
[13] = system: Human immunodeficiency virus 1; experiment: Antiviral activity against HIV-1 IIIB infected in human H9 cells; assay type: functional, organism-based; conditions: Human immunodeficiency virus 1, IIIB
[14] = system: Human immunodeficiency virus 1; experiment: Antiviral activity against NNRTI-resistant HIV-1 harboring K103N/Y181C double mutant assessed as inhibition of viral growth; assay type: functional
[15] = system: Human immunodeficiency virus 1; experiment: Antiviral activity against NNRTI-resistant HIV-1 harboring K103N mutant assessed as inhibition of viral growth; assay type: functional
[16] = system: Human immunodeficiency virus 1; experiment: Antiviral activity against NNRTI-resistant HIV-1 harboring Y181C mutant assessed as inhibition of viral growth; assay type: functional
[17] = system: Human immunodeficiency virus; experiment: Antiviral activity against HIV; assay type: functional, organism-based; conditions: Human immunodeficiency virus 1
[18] = Oral bioavailability in rat; conditions: in vivo
[19] = Oral bioavailability in cynomolgus monkey; conditions: in vivo
[20] = system: Human immunodeficiency virus 1; experiment: Antiviral activity against HIV-1 LAV infected in human CEM cells; assay type: functional, organism-based; conditions: Human immunodeficiency virus 1, LAV, CCRF-CEM
[21] = system: Human immunodeficiency virus 1; experiment: Antiviral activity against HIV-1 infected in lymphoblastoid cell (unknown origin); conditions: Human immunodeficiency virus 1, Lymphoblastoid cell
[22] = Cytotoxicity against human HeLa-MAGI-CCR5 cells
[23] = Cytotoxicity against human CEM cells measured after 6 days; conditions: CEM cells (CCRF-CEM)
[24] = Cytotoxicity against PBMC (unknown origin)
[25] = system: Human immunodeficiency virus 1; experiment: Antiviral activity against HIV-1 infected in PBMC (unknown origin); conditions: Human immunodeficiency virus 1, PBMC
[26] = Oral bioavailability in mouse; conditions: in vivo
[27] = Cytotoxicity against lymphoblastoid cell (unknown origin); conditions: lymphoblastoid cells
[28] = system: Human immunodeficiency virus 1; experiment: Antiviral activity against HIV-1 infected in human HeLa-MAGI-CCR5 cells; conditions: Human immunodeficiency virus 1, HeLa-MAGI-CCR5

Structure (SMILES): CCCC(CCc1ccccc1)c1cc(O)c(C(CC)c2ccccc2)c(=O)o1 (stereo not drawn)
- Ki [2]: 35 nM

Structure (SMILES): Nc1nc(=O)n([C@@H]2CS[C@H](COP(=O)(O)OP(=O)(O)OP(=O)(O)O)O2)cc1F [EMTRICITABINE 5'-TRIPHOSPHATE]
- Kd [3]: 63000 nM
- K [4]: < 8.6 10^-3/s
- Ratio [5]: < 1.4 10^-4/µM/s

Structure (SMILES): CN(C(=O)[C@@H](CCc1ccccc1)NC(=O)Cc1c[nH]c2ccccc12)c1ccccn1
- IC50 [9]: 4500 nM

Structure (SMILES): Cc1[nH]c2ccccc2c1CC(=O)N[C@@H](Cc1ccccc1)C(=O)N(C)c1ccccc1
- IC50 [9]: 570 nM

Structure (SMILES): Cc1nc2ccccc2n1C1C[C@H]2CC[C@@H](C1)N2CC[C@H](NC(=O)C1CCC1)c1ccccc1 (stereo partly drawn)
- inhibition at 0.3 µM (hERG): 80%
- IC90 [10]: 3 nM

Structure (SMILES): CCC[C@@]1(CCc2ccccc2)CC(O)=C([C@@H](CC)c2cccc(NS(=O)(=O)c3ccc(C#N)cn3)c2)C(=O)O1
- Ki [12]: 0.1 nM
- IC50 [13]: 490 nM
- IC90 [13]: 1000 nM

Structure (SMILES): Cn1c(Cn2ccc(C(F)(F)F)c(Oc3cc(Cl)cc(C#N)c3)c2=O)n[nH]c1=O [DORAVIRINE]
- IC95 [14]: 55 nM
- IC95 [15]: 43 nM
- IC95 [16]: 27 nM

Structure (SMILES): Cc1nnc(C(C)C)n1C1CC2CCC(C1)N2CC[C@H](NC(=O)C1CCOCC1)c1ccccc1 (stereo partly drawn)
- inhibition at 0.3 µM (hERG): 0%
- IC90 [10]: 125 nM

Structure (SMILES): CCC[C@]1(CCc2ccccc2)CC(O)=C([C@H](CC)c2cccc(NS(=O)(=O)c3ccc(C#N)cn3)c2)C(=O)O1
- Ki [12]: 0.04 nM
- IC50 [13]: 110 nM
- IC90 [13]: 890 nM

More lines, main results first:

- IC50 [1]: 12 nM
Structure (SMILES): O=C1Nc2ccc(Cl)cc2[C@@](C#Cc2ccccn2)(C2CC2)N1

- IC50 [6]: 7000 nM
Structure (SMILES): Cc1c(Sc2ccccc2)n(COCCO)c(=O)[nH]c1=O [HEPT]

- half-life [7]: < 52 h
- IC90 [8]: 1.7 nM
Structure (SMILES): O=C1Nc2ccc(Cl)cc2[C@@](C#CC2CC2)(C(F)(F)F)O1 [EFAVIRENZ]

- IC50 [1]: 9300 nM
Structure (SMILES): O=C1Nc2ccc(Cl)cc2[C@](C#Cc2ccccn2)(C2CC2)N1

- IC50 (Cytochrome P450 2D6): 710 nM
- IC50 [11]: 4 nM
Structure (SMILES): Cc1nc2ccccc2n1C1CCN(CCC(c2ccccc2)c2ccccc2)CC1

- IC50 [17]: 100000 nM
Structure (SMILES): CCC(c1ccccc1)c1c(O)c2ccccc2oc1=O (stereo not drawn) [PHENPROCOUMON]

- bioavailability [18]: ~58%
- bioavailability [19]: ~58%
- IC50 [20]: 9 nM
- IC50 [21]: 1 nM
- IC50 [25]: 1 nM
- bioavailability [26]: ~58%
- IC50 [28]: 1 nM
Structure (SMILES): Nc1nc(=O)n([C@@H]2CS[C@H](CO)O2)cc1F [EMTRICITABINE]
- CC50 [22]: > 200000 nM
- CC50 at 144 h [23]: > 100000 nM
- CC50 [24]: > 200000 nM
- CC50 [27]: > 200000 nM
